Each block holds one molecule with its values, some of them ahead of it. Numbered stars: 1 amine (or outer) side, 2 acyl side, 3 side chain; on linkers, the order of the positions; unused ones are H or OH. Bridge positions count the residues as written; N and C are the ends. Square brackets hold non-standard residues; d marks the D form. Peptide text beside a SMILES is read from it. Trp(1-Me) = Cn1cc(C[C@H](N)C(=O)O)c2ccccc21; Abu(4-yl) = O=C([C@H](CC[*:3])N[*:1])[*:2]; NMeI = CC[C@H](C)[C@H](NC)C(=O)O; Sar = CNCC(=O)O
Experiments:
[1] = system: classical pathway of complement activation; assay: ELISA-based complement inhibition assay (antigen-antibody complex initiated, C3b deposition); assay type: biochemical; conditions: for relative activity (rank order) in inhibition of antigen-antibody complex-initiated complement activation: FIG. 4, representative result; for IC50: read-out: IC50, concentration at which the peptides inhibit complement activation by 50%, plasma 1:80 in VB++, average of five datasets
Description: An ELISA-based assay was performed to assess the complement inhibitory ability of the compstatin analogs. Briefly, an antigen-antibody complex was used as an initiator of the classical pathway of complement activation. […] Incubation followed to allow complement activation. The deposition of C3b on the plate was measured by a polyclonal anti-C3 antibody. The percentage of inhibition was plotted against the compstatin concentration and fitted to a logistic dose-response function using OriginPro 8.

C3b = C3b (Homo sapiens, UniProt P01024); assay: Biacore SPR kinetic analysis on captured biotinylated C3b; conditions: 1:1 binding model; average of multiple datasets
C3b, sequence (P01024 23-667 limits assumed): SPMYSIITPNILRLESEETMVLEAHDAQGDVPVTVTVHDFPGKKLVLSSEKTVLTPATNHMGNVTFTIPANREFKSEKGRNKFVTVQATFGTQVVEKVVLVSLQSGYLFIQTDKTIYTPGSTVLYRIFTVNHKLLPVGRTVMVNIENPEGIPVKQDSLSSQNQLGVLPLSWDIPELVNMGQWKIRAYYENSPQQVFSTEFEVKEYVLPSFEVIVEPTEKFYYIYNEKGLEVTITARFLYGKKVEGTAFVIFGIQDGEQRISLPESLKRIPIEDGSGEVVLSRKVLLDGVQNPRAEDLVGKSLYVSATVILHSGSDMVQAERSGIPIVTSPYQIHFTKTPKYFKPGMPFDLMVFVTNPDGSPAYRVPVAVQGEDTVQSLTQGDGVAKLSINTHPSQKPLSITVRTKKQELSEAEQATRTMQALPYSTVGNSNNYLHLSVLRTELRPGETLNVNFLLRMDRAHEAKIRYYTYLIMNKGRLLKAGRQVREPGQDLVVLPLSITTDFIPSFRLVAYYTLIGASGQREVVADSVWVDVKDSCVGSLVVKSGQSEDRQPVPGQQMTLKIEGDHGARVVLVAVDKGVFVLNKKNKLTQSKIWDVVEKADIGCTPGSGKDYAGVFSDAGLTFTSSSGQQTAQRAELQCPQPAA
C3b, sequence (P01024 749-1663 partner limits assumed): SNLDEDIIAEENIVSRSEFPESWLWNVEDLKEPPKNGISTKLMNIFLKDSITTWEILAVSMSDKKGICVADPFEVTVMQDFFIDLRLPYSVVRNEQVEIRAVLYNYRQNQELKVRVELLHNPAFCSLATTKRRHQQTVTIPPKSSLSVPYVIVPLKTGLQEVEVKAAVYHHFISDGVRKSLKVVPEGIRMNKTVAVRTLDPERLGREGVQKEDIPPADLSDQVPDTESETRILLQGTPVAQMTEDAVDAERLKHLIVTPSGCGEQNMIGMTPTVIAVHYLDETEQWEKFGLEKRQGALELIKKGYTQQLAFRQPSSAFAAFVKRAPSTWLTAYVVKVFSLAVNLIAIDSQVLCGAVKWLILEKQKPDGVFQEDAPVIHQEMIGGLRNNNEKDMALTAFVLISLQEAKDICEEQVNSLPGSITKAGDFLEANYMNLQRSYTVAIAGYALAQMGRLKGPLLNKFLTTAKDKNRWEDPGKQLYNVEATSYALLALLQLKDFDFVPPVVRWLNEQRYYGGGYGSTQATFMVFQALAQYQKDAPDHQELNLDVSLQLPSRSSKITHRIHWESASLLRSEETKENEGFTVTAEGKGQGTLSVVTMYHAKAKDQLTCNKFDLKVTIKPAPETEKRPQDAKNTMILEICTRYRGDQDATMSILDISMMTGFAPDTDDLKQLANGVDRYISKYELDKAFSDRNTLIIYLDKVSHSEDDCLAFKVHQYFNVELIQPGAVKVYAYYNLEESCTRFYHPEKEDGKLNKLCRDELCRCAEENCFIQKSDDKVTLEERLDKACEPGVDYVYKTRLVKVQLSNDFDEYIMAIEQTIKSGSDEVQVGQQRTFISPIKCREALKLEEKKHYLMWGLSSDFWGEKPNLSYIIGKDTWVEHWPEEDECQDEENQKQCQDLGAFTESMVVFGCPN
Description: The interaction of the compstatin analogs with C3b was characterized using a Biacore 3000 instrument (GE Healthcare, Corp., Piscataway, N.J.). The running buffer was PBS, pH 7.4 (10 mM sodium phosphate, 150 mM NaCl) with 0.005% Tween-20. Biotinylated C3b was captured site-specifically on a streptravidin chip at about 3000, 4000 and 5000 RU density; an untreated flowcell was used as a reference surface. For kinetic analysis, sets of five samples of increasing concentrations were injected over the chip surface one after the other in a single cycle. […] The data analysis was performed using BiaEvaluation. The processed signals were fitted to a 1:1 binding model and kinetic constants were extracted. […] 2 min injections at 30 ul/min were performed, after which a 3 min dissociation was monitored. […] Data analysis followed using Scrubber (BioLogic Software, Campbell, Australia). The processed signals were globally fitted to a Langmuir 1:1 binding isotherm and kinetic constants were extracted.

Biotinylated C3b = Biotinylated C3b (UniProt P01024); assay: SPR (Biacore 3000), single-cycle kinetics, peptide over biotinylated C3b captured on streptavidin chip, 1:1 model
[2] = molecular target: T1, Complement C3 (in plasma) (UniProt P01024 23-1663, limits assumed); assay: cell-based or functional assay
T1 sequence (P01024 23-1663 limits assumed): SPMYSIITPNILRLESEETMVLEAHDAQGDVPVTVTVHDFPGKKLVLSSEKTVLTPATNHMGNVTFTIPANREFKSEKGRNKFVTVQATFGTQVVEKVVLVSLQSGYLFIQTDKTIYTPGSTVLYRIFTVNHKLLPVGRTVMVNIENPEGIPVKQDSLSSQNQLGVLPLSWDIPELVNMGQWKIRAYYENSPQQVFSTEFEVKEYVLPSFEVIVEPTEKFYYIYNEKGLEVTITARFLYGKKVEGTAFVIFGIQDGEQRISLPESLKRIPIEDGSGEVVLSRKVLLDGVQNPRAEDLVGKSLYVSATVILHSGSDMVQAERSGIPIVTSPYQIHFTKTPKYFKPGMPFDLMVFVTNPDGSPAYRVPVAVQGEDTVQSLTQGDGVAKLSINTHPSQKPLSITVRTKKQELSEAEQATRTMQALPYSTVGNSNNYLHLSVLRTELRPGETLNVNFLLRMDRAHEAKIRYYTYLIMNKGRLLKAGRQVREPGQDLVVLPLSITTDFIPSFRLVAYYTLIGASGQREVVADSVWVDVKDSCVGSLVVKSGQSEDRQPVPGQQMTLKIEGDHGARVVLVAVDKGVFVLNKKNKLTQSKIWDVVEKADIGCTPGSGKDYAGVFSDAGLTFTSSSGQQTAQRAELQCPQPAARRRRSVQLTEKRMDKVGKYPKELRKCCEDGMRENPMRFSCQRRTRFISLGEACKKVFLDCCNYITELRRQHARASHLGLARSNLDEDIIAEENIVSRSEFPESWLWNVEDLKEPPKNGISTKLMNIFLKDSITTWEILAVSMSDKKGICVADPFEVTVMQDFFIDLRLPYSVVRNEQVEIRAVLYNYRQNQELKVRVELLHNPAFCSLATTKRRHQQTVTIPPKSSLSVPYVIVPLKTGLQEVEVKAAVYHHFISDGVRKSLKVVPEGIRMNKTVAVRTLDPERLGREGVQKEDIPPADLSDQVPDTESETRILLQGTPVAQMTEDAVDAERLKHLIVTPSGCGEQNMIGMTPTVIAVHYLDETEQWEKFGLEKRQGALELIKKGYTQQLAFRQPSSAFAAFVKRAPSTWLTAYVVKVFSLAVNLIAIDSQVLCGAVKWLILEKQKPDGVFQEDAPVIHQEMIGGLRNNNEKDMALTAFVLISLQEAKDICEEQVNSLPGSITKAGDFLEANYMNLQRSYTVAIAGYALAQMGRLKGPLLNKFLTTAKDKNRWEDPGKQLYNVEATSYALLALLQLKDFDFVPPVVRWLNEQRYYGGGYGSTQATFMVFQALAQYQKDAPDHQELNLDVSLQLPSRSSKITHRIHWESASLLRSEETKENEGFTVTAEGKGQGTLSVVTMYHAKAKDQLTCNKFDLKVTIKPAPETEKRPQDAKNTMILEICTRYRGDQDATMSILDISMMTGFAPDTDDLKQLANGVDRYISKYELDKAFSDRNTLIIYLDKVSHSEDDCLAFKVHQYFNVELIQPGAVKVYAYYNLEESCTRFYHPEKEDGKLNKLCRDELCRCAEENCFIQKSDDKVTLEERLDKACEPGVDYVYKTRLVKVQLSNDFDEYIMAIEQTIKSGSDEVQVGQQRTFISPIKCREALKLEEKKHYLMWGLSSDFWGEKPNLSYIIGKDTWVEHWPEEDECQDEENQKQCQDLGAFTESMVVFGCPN

[3] = molecular target: T1, Complement C3 (in plasma); assay: cell-based or functional assay; remark: listed apart in the source

IC50 [1]: 260 ± 90 nM
kd (C3b): 1.5 ± 0.4 10^−2 s^−1
Molecule: CC[C@H](C)[C@H](NC(C)=O)C(=O)N[C@H]1CSCC[C@@H](C(=O)N(C)[C@H](C(N)=O)[C@@H](C)CC)NC(=O)[C@H](CCCNC(=N)N)NC(=O)[C@H](Cc2c[nH]cn2)NC(=O)[C@H](C)NC(=O)CN(C)C(=O)[C@H](Cc2c[nH]c3ccccc23)NC(=O)[C@H](CC(=O)O)NC(=O)[C@H](CCC(N)=O)NC(=O)[C@H](Cc2cn(C)c3ccccc23)NC(=O)[C@H](C(C)C)NC1=O [Delta-Cth CP20, Ac-Ic[CV(^1-MeW)QDW(^N-MeG)AHRC](^N-MeI)-NH2] (Ac-ICV[Trp(1-Me)]QDW[Sar]AHR[Abu(4-yl)][NMeI]-NH2; thioether 2-12)
relative activity (rank order) in inhibition of antigen-antibody complex-initiated complement activation [1]: CP20>delta-Cth CP20>4W9A>delta-Cth>gamma-Cth

kd (C3b): 11 ± 1.9 10^−2 s^−1
Molecule: CC[C@H](C)[C@H](NC(C)=O)C(=O)N[C@H]1CSCC[C@@H](C(=O)N[C@H](C(N)=O)[C@@H](C)O)NC(=O)[C@H](CCCNC(=N)N)NC(=O)[C@H](Cc2c[nH]cn2)NC(=O)[C@H](C)NC(=O)CNC(=O)[C@H](Cc2c[nH]c3ccccc23)NC(=O)[C@H](CC(=O)O)NC(=O)[C@H](CCC(N)=O)NC(=O)[C@H](Cc2c[nH]c3ccccc23)NC(=O)[C@H](C(C)C)NC1=O [Delta-Cth] (Ac-ICVWQDWGAHR[Abu(4-yl)]T-NH2; thioether 2-12)

kd (C3b): 46.8 ± 5.7 10^−2 s^−1
Molecule: CC[C@H](C)[C@H](NC(C)=O)C(=O)N[C@H]1CCSC[C@@H](C(=O)N[C@H](C(N)=O)[C@@H](C)O)NC(=O)[C@H](CCCNC(=N)N)NC(=O)[C@H](Cc2c[nH]cn2)NC(=O)[C@H](C)NC(=O)CNC(=O)[C@H](Cc2c[nH]c3ccccc23)NC(=O)[C@H](CC(=O)O)NC(=O)[C@H](CCC(N)=O)NC(=O)[C@H](Cc2c[nH]c3ccccc23)NC(=O)[C@H](C(C)C)NC1=O [Gamma-Cth] (Ac-I[Abu(4-yl)]VWQDWGAHRCT-NH2; thioether 2-12)

Second part, the molecule before the results:

Molecule: CC[C@H](C)[C@H](NC(C)=O)C(=O)N[C@H]1CSSC[C@@H](C(=O)N(C)[C@H](C(N)=O)[C@@H](C)CC)NC(=O)[C@H](CCCNC(=N)N)NC(=O)[C@H](Cc2c[nH]cn2)NC(=O)[C@H](C)NC(=O)CN(C)C(=O)[C@H](Cc2c[nH]c3ccccc23)NC(=O)[C@H](CC(=O)O)NC(=O)[C@H](CCC(N)=O)NC(=O)[C@H](Cc2cn(C)c3ccccc23)NC(=O)[C@H](C(C)C)NC1=O [CP20, AC-Ic[CV(^1-MeW)QDW(^N-MeG)AHRC](^N-MeI)-NH2, reference compound]
relative activity (rank order) in inhibition of antigen-antibody complex-initiated complement activation [1]: CP20>delta-Cth CP20>4W9A>delta-Cth>gamma-Cth
IC50 [1]: 130 ± 50 nM
kd (C3b): 0.4 ± 0.1 10^−2 s^−1

Molecule: CP20 compstatin analog (disulfide control) (peptide)
Kd (Biotinylated C3b): 2.4 nM
koff (Biotinylated C3b): 0.004 s⁻¹
kon (Biotinylated C3b): 1.86e+06 M⁻¹ s⁻¹

B1: CP20 compstatin analog (disulfide control) (peptide)
peptide: Ac-ICV[Trp(1-Me)]QDW[Sar]AHRC[NMeI]-NH2
modifications: disulfide 2-12
SMILES: CC[C@H](C)[C@H](NC(C)=O)C(=O)N[C@H]1CSSC[C@@H](C(=O)N(C)[C@H](C(N)=O)[C@@H](C)CC)NC(=O)[C@H](CCCNC(=N)N)NC(=O)[C@H](Cc2c[nH]cn2)NC(=O)[C@H](C)NC(=O)CN(C)C(=O)[C@H](Cc2c[nH]c3ccccc23)NC(=O)[C@H](CC(=O)O)NC(=O)[C@H](CCC(N)=O)NC(=O)[C@H](Cc2cn(C)c3ccccc23)NC(=O)[C@H](C(C)C)NC1=O
IC50, inhibition of antigen-antibody complex-initiated (classical pathway) complement activation, C3b deposition ELISA [2]: 130 nM
IC50 (read off the curve) [3]: ~100 nM

B2: CP20 delta-Cth (delta-cystathionine CP20 compstatin analog) (peptide)
peptide: ICVWQDWGAHRCI
modifications: N-terminal acetyl (Ac-Ile1); 1-methyl-Trp at position 4; N-methyl-Gly at position 8; N-methyl-Ile at position 13; C-terminal amide (-NH2); C2-C12 thioether bond forming delta-cystathionine
IC50, inhibition of antigen-antibody complex-initiated (classical pathway) complement activation, C3b deposition ELISA [2]: 260 nM
IC50 (read off the curve) [3]: ~300 nM

Source: patent publication US20140113874A1, “Modified Compstatin With Improved Stability And Binding Properties” (THE TRUSTEES OF THE UNIVERSITY OF PENNSYLVANIA, priority 2010, published 2014)
